Test results taken from ChEMBL document CHEMBL1177708, “Design, synthesis, and biological evaluation of a novel class of gamma-secretase modulators with PPARgamma activity” (J Med Chem, 2010).
The source made the active and inactive calls. The calls are words filed in the database; no cut-off is given here.

What was measured:
[1] = biological target: T1, Prostaglandin G/H synthase 1 (Ovis aries, UniProt P05979)
T1 sequence (P05979 whole entry): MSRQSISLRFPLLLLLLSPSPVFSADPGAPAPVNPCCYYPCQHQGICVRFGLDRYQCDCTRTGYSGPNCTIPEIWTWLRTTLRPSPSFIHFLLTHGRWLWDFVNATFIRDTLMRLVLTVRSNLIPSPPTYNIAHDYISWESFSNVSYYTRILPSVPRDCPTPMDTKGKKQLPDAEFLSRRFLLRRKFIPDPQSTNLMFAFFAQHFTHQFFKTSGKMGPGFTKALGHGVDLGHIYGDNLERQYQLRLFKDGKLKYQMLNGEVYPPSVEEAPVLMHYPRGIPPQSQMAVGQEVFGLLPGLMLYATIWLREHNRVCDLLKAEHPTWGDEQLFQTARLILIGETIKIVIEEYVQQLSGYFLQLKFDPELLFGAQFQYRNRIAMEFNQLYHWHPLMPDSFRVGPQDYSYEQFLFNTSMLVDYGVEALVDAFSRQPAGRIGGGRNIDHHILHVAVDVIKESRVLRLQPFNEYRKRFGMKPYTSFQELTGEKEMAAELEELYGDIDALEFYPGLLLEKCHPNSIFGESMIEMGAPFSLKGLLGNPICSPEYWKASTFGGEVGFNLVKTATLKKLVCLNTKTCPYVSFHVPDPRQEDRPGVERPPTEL
Description: Inhibition of ovine COX1 after 5 mins

cells = conditions: CHO, 24 h
Description: Modulation of gamma-secretase-mediated cleavage of human APP expressed in CHO cells with human presenilin-1 assessed as inhibition of amyloid beta42 production after 24 hrs by ELISA

[2] = biological target: T2, Peroxisome proliferator-activated receptor delta (Homo sapiens) (UniProt Q03181); assay: Agonist activity at human PPARdelta-LBD expressed in COS7 cells co-transfected with Gal4 at 10 uM by luciferase based transactivation assay; assay type: functional, cell-based; conditions: COS-7
T2 sequence (whole entry): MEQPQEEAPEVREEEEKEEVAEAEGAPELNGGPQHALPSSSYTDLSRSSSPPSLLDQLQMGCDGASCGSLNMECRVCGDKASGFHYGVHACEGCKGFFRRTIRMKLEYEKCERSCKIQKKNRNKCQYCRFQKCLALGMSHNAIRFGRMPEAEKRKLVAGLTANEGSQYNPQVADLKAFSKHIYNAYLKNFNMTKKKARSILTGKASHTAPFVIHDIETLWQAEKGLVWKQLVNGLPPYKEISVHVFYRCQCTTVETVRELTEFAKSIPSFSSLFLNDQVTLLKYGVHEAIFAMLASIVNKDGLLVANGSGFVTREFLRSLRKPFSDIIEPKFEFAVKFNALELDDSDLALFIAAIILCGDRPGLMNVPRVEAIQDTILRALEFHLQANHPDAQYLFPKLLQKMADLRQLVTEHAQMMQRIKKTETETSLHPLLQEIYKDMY

[3] = biological target: T3, Prostaglandin G/H synthase 1 (Ovis aries) (UniProt P05979); assay: Inhibition of ovine COX1 assessed as residual activity at 10 uM after 5 mins
T3 sequence (whole entry): T1 sequence (P05979 whole entry)

CHO [4] = assay: Cytotoxicity against CHO cells at 60 uM after 24 hrs by Alamar blue assay; assay type: cell-based, Cricetulus griseus; conditions: chinese hamster
[5] = Modulation of gamma-secretase-mediated cleavage of human APP expressed in CHO cells with human presenilin-1 assessed as activation of amyloid beta38 production after 24 hrs by ELISA; assay type: cell-based
[6] = biological target: T4, Peroxisome proliferator-activated receptor alpha (Homo sapiens) (UniProt Q07869); assay: Agonist activity at human PPARalpha-LBD expressed in COS7 cells co-transfected with Gal4 at 10 uM by luciferase based transactivation assay; assay type: functional, cell-based; conditions: COS-7
T4 sequence (whole entry): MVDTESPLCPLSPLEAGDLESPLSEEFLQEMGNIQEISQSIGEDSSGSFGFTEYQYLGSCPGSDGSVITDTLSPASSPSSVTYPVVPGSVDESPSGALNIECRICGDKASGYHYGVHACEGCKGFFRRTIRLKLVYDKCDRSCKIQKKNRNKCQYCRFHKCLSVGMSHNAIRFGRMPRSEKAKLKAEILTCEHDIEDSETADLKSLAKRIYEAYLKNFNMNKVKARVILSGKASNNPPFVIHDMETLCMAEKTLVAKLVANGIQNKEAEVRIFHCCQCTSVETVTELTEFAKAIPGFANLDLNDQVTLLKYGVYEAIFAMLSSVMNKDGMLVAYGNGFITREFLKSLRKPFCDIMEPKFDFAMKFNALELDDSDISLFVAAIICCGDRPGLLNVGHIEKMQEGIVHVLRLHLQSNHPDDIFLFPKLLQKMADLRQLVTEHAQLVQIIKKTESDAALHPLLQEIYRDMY

[7] = biological target: T5, Prostaglandin G/H synthase 2 (Homo sapiens) (UniProt P35354); assay: Inhibition of human recombinant COX2 assessed as residual activity at 10 uM after 5 mins
T5 sequence (whole entry): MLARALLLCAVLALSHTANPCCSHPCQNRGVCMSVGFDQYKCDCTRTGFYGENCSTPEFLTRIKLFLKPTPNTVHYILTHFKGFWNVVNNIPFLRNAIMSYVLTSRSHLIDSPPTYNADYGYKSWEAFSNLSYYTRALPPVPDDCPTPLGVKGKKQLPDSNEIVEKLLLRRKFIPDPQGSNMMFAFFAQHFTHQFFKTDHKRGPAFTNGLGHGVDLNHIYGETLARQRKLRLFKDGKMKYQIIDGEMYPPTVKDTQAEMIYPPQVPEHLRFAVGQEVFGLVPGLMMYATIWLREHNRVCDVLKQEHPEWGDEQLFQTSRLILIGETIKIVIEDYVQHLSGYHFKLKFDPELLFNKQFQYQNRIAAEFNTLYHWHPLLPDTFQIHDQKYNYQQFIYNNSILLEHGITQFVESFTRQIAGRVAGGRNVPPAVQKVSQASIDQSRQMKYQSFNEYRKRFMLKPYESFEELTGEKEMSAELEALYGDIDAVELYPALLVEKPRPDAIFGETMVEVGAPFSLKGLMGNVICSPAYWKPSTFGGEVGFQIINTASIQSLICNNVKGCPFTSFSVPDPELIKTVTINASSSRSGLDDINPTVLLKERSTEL

[8] = biological target: T6, Peroxisome proliferator-activated receptor gamma (Homo sapiens) (UniProt P37231); assay: Agonist activity at human PPARgamma-LBD expressed in COS7 cells co-transfected with Gal4 at 20 uM by luciferase based transactivation assay; assay type: functional, cell-based; conditions: COS-7
T6 sequence (whole entry): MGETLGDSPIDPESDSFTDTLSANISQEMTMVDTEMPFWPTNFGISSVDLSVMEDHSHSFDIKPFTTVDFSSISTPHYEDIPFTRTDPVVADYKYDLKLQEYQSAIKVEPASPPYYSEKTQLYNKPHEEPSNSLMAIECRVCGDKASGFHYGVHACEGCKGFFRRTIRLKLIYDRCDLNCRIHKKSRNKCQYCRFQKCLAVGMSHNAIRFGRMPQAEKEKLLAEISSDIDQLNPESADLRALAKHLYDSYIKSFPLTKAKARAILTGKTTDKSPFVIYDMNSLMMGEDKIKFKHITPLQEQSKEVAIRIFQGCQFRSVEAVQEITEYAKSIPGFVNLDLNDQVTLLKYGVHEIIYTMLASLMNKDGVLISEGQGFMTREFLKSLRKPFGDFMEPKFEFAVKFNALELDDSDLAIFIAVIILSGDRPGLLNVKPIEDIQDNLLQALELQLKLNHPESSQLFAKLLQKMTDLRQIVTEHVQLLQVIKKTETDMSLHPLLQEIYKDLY

[9] = biological target: T6, Peroxisome proliferator-activated receptor gamma (Homo sapiens); assay: Agonist activity at human PPARgamma-LBD expressed in COS7 cells co-transfected with Gal4 at 10 uM by luciferase based transactivation assay; conditions: COS-7
[10] = biological target: T6, Peroxisome proliferator-activated receptor gamma (Homo sapiens); assay: Agonist activity at human PPARgamma-LBD expressed in COS7 cells co-transfected with Gal4 at 10 uM by luciferase based transactivation assay; assay type: functional, cell-based; conditions: COS-7
CHO [11] = assay: Modulation of gamma-secretase-mediated notch signaling expressed in CHO cells transfected with Gal4-DNA-binding/VP16 transactivation domain assessed as reduction of reporter activity at 0.5 uM after 24 hrs; assay type: cell-based
CHO [12] = assay: Modulation of gamma-secretase-mediated notch signaling expressed in CHO cells transfected with Gal4-DNA-binding/VP16 transactivation domain assessed as reduction of reporter activity at 5 to 40 uM after 24 hrs; assay type: cell-based
[13] = biological target: T6, Peroxisome proliferator-activated receptor gamma (Homo sapiens); assay: Agonist activity at human PPARgamma-LBD expressed in COS7 cells co-transfected with Gal4 by luciferase based transactivation assay relative to pioglitazone; assay type: functional, cell-based; conditions: COS-7
[14] = biological target: T1, Prostaglandin G/H synthase 1; remark: listed apart in the source
Description: Inhibition of ovine COX1 after 5 mins

[15] = biological target: T7, Peroxisome proliferator-activated receptor gamma (Homo sapiens, UniProt P37231); assay: Agonist activity at human PPARgamma-LBD expressed in COS7 cells co-transfected with Gal4 by luciferase based transactivation assay; assay type: functional, cell-based, COS-7
T7 sequence (P37231 whole entry): T6 sequence (whole entry)

CHO [16] = assay: Cytotoxicity against CHO cells at 40 uM after 24 hrs by Alamar blue assay; assay type: cell-based, Cricetulus griseus; conditions: chinese hamster
[17] = biological target: T6, Peroxisome proliferator-activated receptor gamma (Homo sapiens); assay: Agonist activity at human PPARgamma-LBD expressed in COS7 cells co-transfected with Gal4 at 6 uM by luciferase based transactivation assay; assay type: functional, cell-based; conditions: COS-7

IC50 (cells) [µM]	Activity [2]	Activity [3] [%]	EC50 [5] [µM]	Activity [6]	Activity [7] [%]	Activity [8] [%]	Activity [9]	Activity [10] [%]	Emax [13] [%]	IC50 [14] [µM]	EC50 [15] [µM]	Activity [17] [%]	SMILES	IC50 [1]	Activity (CHO [4])	Activity (CHO [11])	Activity (CHO [12])	Activity (CHO [16])
25.2	inactive	88.9	24.2	inactive	61.6	31							CCCCC(Sc1nc(OCc2ccccc2)cc(OCc2ccccc2)n1)C(=O)O (stereo not given)		Non-toxic			
29.3	inactive	72.2	12.8	inactive	86		inactive						O=C(O)C(Sc1nc(OCCc2ccccc2)cc(OCCc2ccccc2)n1)c1ccccc1 (stereo not given)		Non-toxic			
19.3	inactive	72.8	6.2	inactive	94.6			23					CCCCC(Sc1nc(OCCc2ccc(OC)cc2)cc(OCCc2ccc(OC)cc2)n1)C(=O)O (stereo not given)		Non-toxic			
37.7	inactive	76.6	17.5	inactive	102	32							CCCCC(Sc1nc(OCCc2ccsc2)cc(OCCc2ccsc2)n1)C(=O)O (stereo not given)		Non-toxic			
													CC(C)C[C@H](NC(=O)[C@H](Cc1ccccc1)C[C@@H](O)[C@H](Cc1ccccc1)NC(=O)OC(C)(C)C)C(=O)N[C@@H](Cc1ccccc1)C(N)=O			Active		
21.5	inactive	73.9	8.4	inactive	98.5			22					CCCC[C@@H](Sc1nc(OCCc2ccccc2)cc(OCCc2ccccc2)n1)C(=O)O		Non-toxic			
11.3	inactive	56.1	1.9	inactive	50.1		inactive						CCCCC(Sc1nc(OCCC2CCCCCC2)cc(OCCC2CCCCCC2)n1)C(=O)O (stereo not given)		Non-toxic			
6	inactive	54.4	1.8	inactive	69				112	16.9	11		CCCCC(Sc1nc(OCCc2ccc(C(F)(F)F)cc2)cc(OCCc2ccc(C(F)(F)F)cc2)n1)C(=O)O (stereo not given)		25%		inactive	Non-toxic
31.2	inactive	82.1		inactive	91.6							33	CCCCC(Sc1nc(OCCc2ccc([N+](=O)[O-])cc2)cc(OCCc2ccc([N+](=O)[O-])cc2)n1)C(=O)O (stereo not given)		Non-toxic			

SMILES	IC50 (cells) [µM]	Activity [2]	Activity [3] [%]	EC50 [5] [µM]	Activity [6]	Activity [7] [%]	Activity [8] [%]	Activity [9]	Activity [10] [%]	Emax [13] [%]	IC50 [14] [µM]	EC50 [15] [µM]	Activity [17] [%]	IC50 [1]	Activity (CHO [4])	Activity (CHO [11])	Activity (CHO [12])	Activity (CHO [16])
C[C@@H](C(=O)O)c1ccc(-c2ccccc2)c(F)c1 [TARENFLURBIL]	305													Not Active				
